Tests used:
N2a Neuroblastoma Cells = assay: Cytotoxicity in N2a neuroblastoma cells (CellTiter 96 AQueous One); format: cell-based; conditions: all concentrations tested (1-50 μM)
Description: 2×10^4 N2a cells were plated in each well of a 96-well cell culture plate containing 100 pi EMEM (Gibco), supplemented with 10% FBS (N2a growth medium), and were incubated at 37° C. for 48 hours. On the day of treatment, stock solutions of […] of Compound I-63 in ethanol were further diluted with N2a growth medium to obtain Compound I-63-containing N2a medium with 50 μM, 10 μM, 5 μM and 1 μM Compound I-63. The final concentration of ethanol in all media dilutions was 1%, and therefore 1% ethanol was added to the 0 μM Compound I-63 (untreated) control. The media dilutions were applied to the N2a cells (100 µl per well) and incubated at 37° C. for 4 hours or 24 hours. At the end of the treatment period, cell media was removed and 100 μl of pre-warmed phenol red-free N2a growth media was added to each well. 20 µl of the CellTiter 96® AQueous One Solution (Promega) was added to each well and the dish was incubated at 37° C. for 1-4 hours until visible reddish color develops. The dish was read at a wavelength of 490 nm using a plate reader. N2a cells were grown in 96-well dishes and were treated for 4 hours (♦) or 24 hours (i) with increasing concentrations of Compound I-63. Cell survival was assayed using the CellTiter 96® AQueous One Solution (Promega) using the manufacturer's directions. […]

JNPL3 transgenic mice = assay: Motor functions of JNPL3 transgenic mice (composite neuroscore); format: in vivo; conditions: 0.1% diet
Description: The JNPL3 transgenic mouse line that carries the transgene for the human P301 L mutation of the microtubule-associated protein tau gene (MAPT) was used in this experiment (Lewis et al., 2000). 9-12 weeks old homozygous JNPL3 males (Laconic Farms, Hudson, N.Y.) were housed under standard conditions (temperature 22±2° C.; relative humidity 50±10%; 12 h light/12 h dark cycle) and allowed to acclimatize for 2 weeks. Following acclimatization, two groups of animals (6 animals per group) are changed to control diet (Research Diets; New Brunswick, N.J.) or purified 0.1% Compound I-63 formulated diet. The composite neuroscore (NS) was used as the scoring system to measure the following tasks: (1) forelimb flexion response during suspension by the tail, (2) righting and postural reflexes, and (3) prehensile traction test (Yoshiyama et al., 2005; Korenova et al., 2009). The neurological and motor examination included the basic reflex response by special attention to the assessment of the hind-limb escape extension reflex, the righting and postural reflexes and the prehensile traction test where the animal is allowed to grasp with its forepaws a horizontal cotton string (1 mm in diameter) suspended 70 cm above a padded surface. The scoring conditions were graded as follows:
2—Animal maintained forelimbs in scissored, clasped or dystonic position
Postural and Righting Reflex:
0—Animal could right when placed supine
1—Animal righting slowed (>ls)
Prehensile Traction Test:
0—Animal could complete test with at least 3 paws and tail within 2 min
1—Animal could hold on to string without falling within 2 min
2—Animal fell before 2 min without completion
3—Animal was unable to perform test
Each animal was scored using a scaling system ranging from 0-12 (normal), 13-20 (mild or early), 21-23 (moderate) and 24-30 (severe) to reflect serious impairment of neuromuscular functionality and muscular weakness. […]
Motor test scores vs. weeks of mice fed control diet (closed circles) and 0.1% Compound I-63 formulated diet (open circles). […]

phosphorylated Tau = assay: Phosphorylated tau in vivo, weekly up to 4 weeks (PHF1 Western blot of brain); parameters: species or system mice; conditions: 0.1% by weight in feed, mouse brain
Description: Swiss Webster mice ([…]) were fed ad libitum, either standard rodent chow (Control), or rodent chow formulated with 0.1 g Compound I-63 per 100 g chow (0.1% Compound I-63); water was changed weekly. Mice were housed at 23° C., on a 12 hour light and dark cycle, with 6 mice per cage. At weekly intervals up to 4 weeks, three and six mice from the Control and 0.1% Compound I-63 groups respectively were sacrificed by cervical dislocation, brains removed, snap-frozen in liquid nitrogen, and were stored at −80° C. Brains were homogenized in 350 pi of buffer containing 20 mM MOPS-Na, pH 7.2, 1 mM EDTA/DTT, 0.5 mg/L of aprotinin, leupeptin and pepstatin, 100 nM okadaic acid, and clarified by centrifugation (14,000 rpm, 10 min, 4° C.). Supernatant protein concentrations were measured by the Bradford method, 4 volumes of the supernatant and 1 volume of 5×SDS sample buffer were mixed and boiled for 2 minutes. 40 pg of the boiled homogenate were loaded on 12% polyacrylamide gels, and transferred to nitrocellulose membranes. Membranes are blocked in 5% BSA+TBST for 1 hour at room temperature, and incubated overnight at 4° C. with the following primary antibodies at the indicated dilutions: PHF1 mAb (recognizes phospho-Serine 396/404) at 1:2000, Tau-5 (Millipore; pan-tau mAb) at 1:10,000, and anti-GAPDH (Sigma mAb; used as loading control) at 1:50,000. Protein bands were detected with the ECL Plus reagent (GE Healthcare) and blots were exposed to Kodak XOmat film. Densitometric analyses were performed with ImageJ software. For relative phospho-tau levels of the Compound I-63-treated animals, the ratio of GAPDH-normalized phospho-tau to GAPDH-normalized total tau was further normalized to the corresponding ratios for the control group of mice. Error bars represent the standard error of the means.

PP2A = molecular target: T1, PP2A (Homo sapiens, UniProt P67775); assay: Phosphatase activity of PP2A using pNPP as substrate; format: biochemical; conditions: un-methylated PP2A, non-protein substrate pNPP, absence of ME and MT
T1 construct: made in house
T1 sequence (P67775 whole entry): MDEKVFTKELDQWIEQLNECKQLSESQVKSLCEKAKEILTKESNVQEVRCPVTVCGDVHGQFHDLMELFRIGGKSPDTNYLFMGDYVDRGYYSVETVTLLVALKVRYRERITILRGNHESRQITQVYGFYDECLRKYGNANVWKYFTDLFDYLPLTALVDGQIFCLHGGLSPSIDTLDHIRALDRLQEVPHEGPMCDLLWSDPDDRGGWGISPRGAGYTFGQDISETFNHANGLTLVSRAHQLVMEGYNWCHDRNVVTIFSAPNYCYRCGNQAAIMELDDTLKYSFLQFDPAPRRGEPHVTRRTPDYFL
T1 sequence (P30153 whole entry partner): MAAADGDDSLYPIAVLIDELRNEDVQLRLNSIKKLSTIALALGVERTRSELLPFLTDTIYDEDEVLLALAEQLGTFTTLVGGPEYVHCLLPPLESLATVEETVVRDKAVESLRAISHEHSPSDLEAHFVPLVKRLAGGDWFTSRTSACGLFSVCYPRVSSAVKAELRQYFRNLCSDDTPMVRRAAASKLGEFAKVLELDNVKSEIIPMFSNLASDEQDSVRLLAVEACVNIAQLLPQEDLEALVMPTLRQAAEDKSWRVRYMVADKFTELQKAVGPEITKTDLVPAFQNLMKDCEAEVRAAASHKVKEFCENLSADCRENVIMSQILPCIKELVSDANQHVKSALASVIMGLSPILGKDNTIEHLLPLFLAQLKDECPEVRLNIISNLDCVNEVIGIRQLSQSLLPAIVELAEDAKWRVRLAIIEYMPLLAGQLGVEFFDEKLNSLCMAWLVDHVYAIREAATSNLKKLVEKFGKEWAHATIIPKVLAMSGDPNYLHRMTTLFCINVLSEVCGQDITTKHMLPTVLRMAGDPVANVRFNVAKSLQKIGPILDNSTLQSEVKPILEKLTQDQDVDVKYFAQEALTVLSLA
Description: PP2A (10-200 nM) and pNPP (5-10 mM, Sigma) were mixed into 96-well plate (Fisher Scientific Inc.) in 50 μL of the buffer required. Reactions were performed at room temperature, and fully stopped by adding equal volume of 0.1 M EDTA. Production of p-nitrophenol […] was quantified by absorbance of reaction mixtures at 405 nm using the VMax® microplate reader (Molecular Devices).

CCCCCCCCCCCCCCCCCCCC(=O)NCCc1c[nH]c2ccc(O)cc12 [Compound I-63, N-(2-(5-hydroxy-1H-indol-3-yl)ethyl)icosanamide]
cell survival (N2a Neuroblastoma Cells; 4 hours): over 85% | cell survival (N2a Neuroblastoma Cells; 24 hours): over 85% | mean motor test scores less than mice on control diet (JNPL3 transgenic mice; after eleven weeks): 75% | protection from developing motor dysfunction (JNPL3 transgenic mice; after ten weeks): protection of JNPL3 transgenic mice from developing motor dysfunction | mean motor test scores less than mice on control diet (JNPL3 transgenic mice; after twelve weeks): 75% | reduction in phosphorylation of tau compared to control (phosphorylated Tau; four weeks): ≥ 70% | reduction in phosphorylation of tau compared to control (phosphorylated Tau; three weeks): > 50% | reduction in phosphorylation of tau compared to control (phosphorylated Tau; two weeks): < 40% | IC50 (PP2A): > 100 µM
